From patent US6756210B2, “Linoleic acid diol and glucuronide conjugate levels as diagnostic markers of disorders of abnormal regulation of cytochrome P450 metabolism of unsaturated fatty acids” (The Regents of the University of California, priority 2001, dated 2004)
Where two headings read alike, the source gives them in different places.

Tests used:
[1] = biological target: T1, recombinant mouse sEH (MsEH) (Mus musculus, UniProt P34914); assay: Inhibition of recombinant mouse sEH (MsEH); format: biochemical
T1 sequence (P34914 1-554): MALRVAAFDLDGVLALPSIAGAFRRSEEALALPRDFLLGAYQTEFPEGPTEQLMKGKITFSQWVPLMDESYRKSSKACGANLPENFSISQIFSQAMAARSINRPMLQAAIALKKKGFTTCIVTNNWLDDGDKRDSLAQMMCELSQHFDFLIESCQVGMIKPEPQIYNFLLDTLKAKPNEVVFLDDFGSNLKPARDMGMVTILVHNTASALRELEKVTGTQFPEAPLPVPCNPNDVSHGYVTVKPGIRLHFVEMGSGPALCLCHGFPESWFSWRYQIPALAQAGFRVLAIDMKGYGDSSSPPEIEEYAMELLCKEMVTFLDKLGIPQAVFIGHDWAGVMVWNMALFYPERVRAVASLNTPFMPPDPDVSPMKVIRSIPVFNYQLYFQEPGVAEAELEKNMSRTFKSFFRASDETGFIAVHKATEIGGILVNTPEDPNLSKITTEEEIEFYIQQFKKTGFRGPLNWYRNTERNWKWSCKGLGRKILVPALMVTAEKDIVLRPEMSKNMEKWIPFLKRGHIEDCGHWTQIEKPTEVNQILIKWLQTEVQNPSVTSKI

Human sEH (HsEH) = biological target: T2, Human sEH (HsEH) (Homo sapiens, UniProt P34913); assay: Inhibition of recombinant human sEH (HsEH); format: biochemical; conditions: HsEH 0.26 μM
T2 sequence (P34913 1-555): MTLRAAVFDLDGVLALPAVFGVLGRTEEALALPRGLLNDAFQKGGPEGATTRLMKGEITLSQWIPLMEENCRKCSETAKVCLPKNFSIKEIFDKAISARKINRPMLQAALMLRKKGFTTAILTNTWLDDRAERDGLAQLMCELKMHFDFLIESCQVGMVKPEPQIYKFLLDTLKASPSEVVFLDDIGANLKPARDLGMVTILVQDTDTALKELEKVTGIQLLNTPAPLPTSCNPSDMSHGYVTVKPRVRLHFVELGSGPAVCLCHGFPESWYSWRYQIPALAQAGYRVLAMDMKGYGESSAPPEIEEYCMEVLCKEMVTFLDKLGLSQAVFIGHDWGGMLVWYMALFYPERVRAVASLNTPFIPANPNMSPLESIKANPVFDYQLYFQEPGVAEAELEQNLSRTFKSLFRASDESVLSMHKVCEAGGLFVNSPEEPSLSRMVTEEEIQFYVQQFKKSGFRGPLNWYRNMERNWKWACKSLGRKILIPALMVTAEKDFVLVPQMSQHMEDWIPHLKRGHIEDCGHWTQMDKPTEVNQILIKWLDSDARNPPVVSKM

[2] = Table 1, MsEH 0.13 μM, read-out: Mouse sEH IC50
[3] = Table 2, MsEH 0.13 μM, read-out: Mouse sEH IC50

| IC50 [1, 2] [µM] | IC50 (Human sEH (HsEH); Table 1) [µM] | Structure (SMILES) | also measured |
| --- | --- | --- | --- |
| 0.05 ± 0.01 | 0.1 ± 0.01 | O=C(NC1CCCCC1)NC1C2CC3CC(C2)CC1C3 (stereo not shown) [compound 427] |  |
| 0.45 ± 0.09 | 0.1 ± 0.02 | O=C(NC1CCCCC1)OCc1ccc(-c2ccccc2)cc1 [compound 259] |  |
| 0.05 ± 0.01 | 0.1 ± 0.01 | CCCCCCCCCNC(=O)NC1CCCCC1 [compound 473] |  |
| 0.8 ± 0.1 | 23 ± 4 | CCCCCCCCCCCCNC(=O)NC1CCC1 [compound 504] |  |
| 0.05 ± 0.01 | 1.5 ± 0.1 | CN(C)c1ccc(NC(=O)NC2CCCCC2)cc1 [compound 362] |  |
|  |  | CC(O)C1OC1c1ccc([N+](=O)[O-])cc1 (racemic) [R=4-NO2—C6H4, R′=CH3, X—Y=CH—OH, ±] | IC50 [1, 3]: 6.5 ± 0.2 µM; IC50 (Human sEH (HsEH); Table 2): 39 ± 1 µM |
| 0.59 ± 0.03 | 3.4 ± 0.04 | CCOC(CNC(=O)Nc1ccc(C(C)C)cc1)OCC [compound 159] |  |
| 0.12 ± 0.01 | 2.2 ± 0.1 | CC(C)CNC(=O)NC1CCCCC1 [compound 103] |  |
| 0.05 ± 0.01 | 0.1 ± 0.01 | O=C(NCCC1=CCCCC1)NC1CCCCC1 [compound 359] |  |
| 0.06 ± 0.01 | 0.13 ± 0.01 | O=C(NC1CCCCC1)OC1CCCCC1 [compound 42] |  |
| 0.05 ± 0.1 | 0.1 ± 0.01 | CC(C)(C)C1CCC(NC(=O)NC2CCCCC2)CC1 (stereo not shown) [compound 428] |  |
| 0.05 ± 0.01 | 0.1 ± 0.01 | O=C(NC1CCCCC1)NC1CC2CCC1C2 (stereo not shown) [compound 543] |  |
| 0.27 ± 0.01 |  | CCCCCCCCCCCCNC(=O)OC1CCCCC1 [compound 514] |  |
| 0.05 ± 0.1 | 0.1 ± 0.01 | O=C(NC1CCCCCC1)NC1CCCCC1 [compound 22] |  |
|  |  | [O-][S+](c1ccccc1)C1OC1c1ccc(-c2ccccc2)cc1 (racemic) [R=4-C6H5—C6H4, R′=C6H5, X—Y=S═O, ±] | IC50 [1, 3]: 73 ± 5 µM; IC50 (Human sEH (HsEH); Table 2): 70 ± 3 µM |
|  |  | Cc1ccc(C(=O)C2OC2c2ccc(-c3ccccc3)cc2)cc1 (racemic) [R=4-C6H5—C6H4, R′=4-CH3—C6H4, X—Y=C═O, ±] | IC50 [1, 3]: 0.1 ± 0.01 µM; IC50 (Human sEH (HsEH); Table 2): 0.19 ± 0.03 µM |
| 0.04 ± 0.01 | 0.29 ± 0.01 | O=C(NCCCc1ccccc1)NC1CCCCC1 [compound 104] |  |

| IC50 [1, 2] [µM] | IC50 (Human sEH (HsEH); Table 1) [µM] | Structure (SMILES) | also measured |
| --- | --- | --- | --- |
|  |  | ON=C(c1ccccc1)C1OC1c1ccc(-c2ccccc2)cc1 (racemic) [R=4-C6H5—C6H4, R′=C6H5, X—Y=C═NOH, ±] | IC50 [1, 3]: 42 ± 3 µM; IC50 (Human sEH (HsEH); Table 2): 35 ± 1 µM |
| 0.25 ± 0.03 | 2.2 ± 0.1 | O=C(NCCC1=CCCCC1)NCc1ccccc1 [compound 471] |  |
| 0.5 ± 0.1 | 15 ± 3 | CCCCCCCCCCCCNC(=O)NC(C)(C)CC [compound 562] |  |
| 0.05 ± 0.01 | 0.16 ± 0.01 | CCCCCCc1ccc(NC(=O)NC2CCCCC2)cc1 [compound 501] |  |
| 0.05 ± 0.01 | 0.14 ± 0.01 | CC(C)(C)OC(=O)NCCNC(=O)NC1CCCCC1 [compound 124] |  |
| 0.05 ± 0.01 | 0.26 ± 0.02 | CCCCCCCCCCCCNC(=O)NCC(C)C [compound 478] |  |
| 0.05 ± 0.01 |  | O=C(NC1CCCCCCC1)NC1CCCCC1 [compound 58] |  |
|  |  | O=[N+]([O-])c1ccc(C2OC2CO)cc1 (racemic) [R=4-NO2—C6H4, R′=H, X—Y=CH—OH, ±] | IC50 [1, 3]: 5 ± 1 µM |
|  |  | OC[C@@H]1O[C@H]1c1ccccc1 [R=C6H5, R′=H, X—Y=CH—OH, S, S] | IC50 [1, 3]: 2400 ± 46 µM |
| 0.09 ± 0.01 |  | CC(C)c1ccc(NC(=O)NC2CCCCC2)cc1 [compound 66] |  |
|  |  | OC[C@H]1O[C@@H]1c1ccccc1 [R=C6H5, R′=H, X—Y=CH—OH, R, R] | IC50 [1, 3]: 1100 ± 23 µM |
|  |  | O=[N+]([O-])c1ccc([C@@H]2O[C@H]2CO)cc1 [R=4-NO2—C6H4, R′=H, X—Y=CH—OH, S, S] | IC50 [1, 3]: 1.6 ± 0.6 µM |
| 0.07 ± 0.01 |  | O=C(Nc1cccc(Cl)c1)NC1CCCCC1 [compound 44] |  |
| 0.19 ± 0.05 |  | CCCCCCCCCCCCCC(=O)NC1CCCCC1 [compound 515] |  |
|  |  | O=[N+]([O-])c1ccc([C@H]2O[C@@H]2CO)cc1 [R=4-NO2—C6H4, R′=H, X—Y=CH—OH, R, R] | IC50 [1, 3]: 1200 ± 25 µM |
|  | 0.24 ± 0.01 | CCCCCCCCNC(=O)NCCCCCC [compound 175] |  |

| Structure (SMILES) | IC50 [1, 2] [µM] | IC50 (Human sEH (HsEH); Table 1) [µM] | also measured |
| --- | --- | --- | --- |
| CCNC(=O)OC1CCCCC1 [compound 255] |  | 2.88 ± 0.04 | IC50 [1]: 0.48 ± 0.07 µM |
| O=C(Nc1ccc(Cl)c(Cl)c1)Nc1ccc(Cl)c(Cl)c1 [compound 299] |  | 0.26 |  |
